ChEMBL document CHEMBL1134810, “G-quadruplex DNA binding by a series of carbocyanine dyes” (Bioorg Med Chem Lett, 2001)

Key:
[1] = target: DNA polymerase I, thermostable (Thermus aquaticus) (UniProt P19821); test: Taq polymerase inhibition at […] concentration; conditions: 20 uM
[2] = target: Telomerase reverse transcriptase (Homo sapiens) (UniProt O14746); test: Inhibition of human telomerase activity in S100 HeLa cell extract at […] carbocyanine concentration.; type: cell-free
[3] = target: DNA polymerase I, thermostable (Thermus aquaticus) (UniProt P19821); test: G4'-DNA binding-dependent Taq polymerase pausing is the ratio of pause/full bands at 20 uM carbocyanine concentration relative to control; expressed as Normalized ratio of G4'-DNA stop product

Telomerase reverse transcriptase (Homo sapiens), sequence (O14746 whole entry): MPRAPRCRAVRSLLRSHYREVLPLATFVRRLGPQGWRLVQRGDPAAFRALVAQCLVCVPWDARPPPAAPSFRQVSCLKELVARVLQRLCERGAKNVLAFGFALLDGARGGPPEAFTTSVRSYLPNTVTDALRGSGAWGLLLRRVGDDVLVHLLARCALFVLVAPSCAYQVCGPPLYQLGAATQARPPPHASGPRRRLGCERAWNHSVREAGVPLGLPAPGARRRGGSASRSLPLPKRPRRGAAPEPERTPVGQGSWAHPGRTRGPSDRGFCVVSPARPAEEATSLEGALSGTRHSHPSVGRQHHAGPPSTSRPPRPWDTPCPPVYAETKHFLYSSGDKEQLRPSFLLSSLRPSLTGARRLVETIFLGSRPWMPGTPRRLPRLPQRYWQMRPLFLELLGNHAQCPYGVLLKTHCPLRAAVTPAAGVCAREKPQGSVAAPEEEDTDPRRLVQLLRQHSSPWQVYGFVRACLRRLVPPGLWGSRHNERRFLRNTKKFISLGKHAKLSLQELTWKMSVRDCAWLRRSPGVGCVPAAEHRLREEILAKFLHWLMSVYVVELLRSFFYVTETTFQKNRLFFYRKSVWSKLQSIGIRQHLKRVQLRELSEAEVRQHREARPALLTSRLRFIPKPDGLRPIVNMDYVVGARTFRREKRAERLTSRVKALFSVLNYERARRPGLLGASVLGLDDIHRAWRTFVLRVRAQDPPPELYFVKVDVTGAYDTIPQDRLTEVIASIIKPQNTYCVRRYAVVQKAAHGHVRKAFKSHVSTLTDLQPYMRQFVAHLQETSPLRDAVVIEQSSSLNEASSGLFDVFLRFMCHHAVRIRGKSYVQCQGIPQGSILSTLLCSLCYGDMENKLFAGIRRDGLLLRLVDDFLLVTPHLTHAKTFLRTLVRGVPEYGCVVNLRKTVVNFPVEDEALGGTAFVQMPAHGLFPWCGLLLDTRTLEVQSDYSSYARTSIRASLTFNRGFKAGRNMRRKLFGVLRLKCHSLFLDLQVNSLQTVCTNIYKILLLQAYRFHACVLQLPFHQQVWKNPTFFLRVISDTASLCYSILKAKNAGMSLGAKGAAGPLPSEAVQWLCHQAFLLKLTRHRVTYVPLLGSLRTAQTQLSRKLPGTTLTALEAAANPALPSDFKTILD
DNA polymerase I, thermostable (Thermus aquaticus), sequence (P19821 whole entry): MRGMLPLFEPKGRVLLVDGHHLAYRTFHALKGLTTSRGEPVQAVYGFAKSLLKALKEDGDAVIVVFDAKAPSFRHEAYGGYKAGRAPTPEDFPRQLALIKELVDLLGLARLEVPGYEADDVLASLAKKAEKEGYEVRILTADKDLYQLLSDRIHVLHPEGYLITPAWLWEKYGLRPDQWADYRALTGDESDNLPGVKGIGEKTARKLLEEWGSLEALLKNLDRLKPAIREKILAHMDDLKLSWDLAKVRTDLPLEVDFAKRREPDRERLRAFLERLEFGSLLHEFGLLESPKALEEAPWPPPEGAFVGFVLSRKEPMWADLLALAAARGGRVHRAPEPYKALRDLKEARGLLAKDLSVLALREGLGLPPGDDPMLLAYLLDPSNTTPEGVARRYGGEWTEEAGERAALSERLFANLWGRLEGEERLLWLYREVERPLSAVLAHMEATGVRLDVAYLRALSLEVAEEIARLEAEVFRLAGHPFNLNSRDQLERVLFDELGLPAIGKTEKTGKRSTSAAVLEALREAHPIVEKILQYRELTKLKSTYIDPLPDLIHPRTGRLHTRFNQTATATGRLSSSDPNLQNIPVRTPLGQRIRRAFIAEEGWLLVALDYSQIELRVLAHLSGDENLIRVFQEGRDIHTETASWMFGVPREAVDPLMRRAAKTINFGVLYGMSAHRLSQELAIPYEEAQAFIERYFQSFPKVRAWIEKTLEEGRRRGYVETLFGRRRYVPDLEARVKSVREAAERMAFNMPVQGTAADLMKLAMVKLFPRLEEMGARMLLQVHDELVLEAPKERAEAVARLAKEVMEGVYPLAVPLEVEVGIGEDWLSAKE

SMILES	inhibition [1] [%]	inhibition [2] [%]	Activity [3]
CCN1/C(=C/C=C/C=C/C=C/c2sc3ccccc3[n+]2CC)Sc2ccccc21	1.1	< 10	1.1
CCN1C(=CC=CC=Cc2sc3ccccc3[n+]2CC)Sc2ccccc21	91	< 10	

Further lines, results first:

inhibition [1] [%]	inhibition [2] [%]	Activity [3]	SMILES
15	< 10	0.9	CCN1/C(=C/C=C/c2oc3ccccc3[n+]2CC)Oc2ccccc21
14	35	4.4	CCN1/C(=C/C=C/c2sc3ccccc3[n+]2CC)Sc2ccccc21
27	< 10	1.6	CCN1/C(=C/C=C/C=C/c2oc3ccccc3[n+]2CC)Oc2ccccc21
